Results from patent US20230020319A1, “COMPOSITIONS AND METHODS FOR OPTOCHEMICAL CONTROL OF MTOR SIGNALING AND MTOR-DEPENDENT AUTOPHAGY” (The University of Hong Kong, priority 2021, published 2023).
Entries after “also recorded” stand apart in the source; their conditions may differ. Blank lines part the entries; values can stand above or below the molecule they belong to.

Key:
mTORC2 signaling pathway = assay: Western blot of mTORC2 signaling (Akt phosphorylation); assay type: cell-based; details: compared with the control group, with or without light (420 nm, 70 mW/cm^2, 3 min)
Method: (§1) FIG. 5 is a photomicrograph showing bands corresponding to each of p-S6K, S6K, p-Akt, Akt, mTOR, and GAPDH, respectively, from cells treated with each of DMSO (control), OSI-027, DEACM, and cOSI-027, respectively, each with (+) or without (−) exposure to light (420 nm, 70 mW/cm^2, 3 min).
(§2) To further investigate the mTOR inhibitory effect of OSI-027 and cOSI-027 with or without light irradiation, western blot was performed to analyze the protein expression level of mTOR pathway (FIG. 5). S6K and Akt phosphorylation ratios were chosen as markers for mTORC1 and mTORC2 signaling pathway investigation, respectively.

autophagy activity = assay: Western blot of autophagy level (LC3-II/LC3-I ratio); assay type: cell-based
Excerpt: FIGS. 6A-6B show results of Western blotting and quantification of autophagy. FIG. 6A is a photomicrograph showing bands corresponding to each of LC3-I, LC3-II, and GADPH in cells treated with each of DMSO (control), OSI-027, DEACM, and cOSI-027, respectively, each with (+) or without (−) exposure to light. FIG. 6B is a graph showing normalized LC3-II/LC3-I ratio (0-15) for each of the bands in FIG. 6A including DMSO, OSI-027, DEACM, and cOSI-027, each with or without exposure to light, respectively. Light irradiation was done with a 420 nm LED (70 mW/cm^2, 3 min).
mTORC1 inhibition leads to higher autophagy activity, resulting in enhanced protein degradation ability in the lysosome. Therefore, whether the photochemical-controlled mTOR inhibition strategy can be used for manipulating autophagy activity was investigated. Autophagy level was characterized by the LC3-II/LC3-I ratio through western blot analysis (FIGS. 6A-6B). 24 h after the drug treatment, OSI-027 increased the LC3-II/LC-I ratio compared with the control group, indicating a higher autophagy activity. And cOSI-027 treatment led to a higher LC3-II/LC3-I ratio after light irradiation, compared with non-irradiation group.

[1] = test system: mCherry-GFP-LC3 transfected HeLa cell line; assay: CLSM of LC3 puncta in mCherry-GFP-LC3 cells; assay type: cell-based
Excerpt: FIGS. 7A-7B are photomicrographs showing the presence of mCherry and/or GFP following exposure to different formulations and respective quantitative analysis. FIG. 7A is a panel of photomicrographs showing the presence of mCherry and/or GFP in cells treated with each of DMSO, OSI-027, DEACM, and cOSI-027, each with light irradiation or no light, respectively. FIG. 7B is a graph showing number of LC3 puncta per cell (0-300) for each of the groups in FIG. 7A. Light irradiation was done with a 420 nm LED (70 mW/cm^2, 3 min).
To further validate the photoactivated effect on autophagy, a mCherry-GFP-LC3 transfected HeLa cell line was established to accurately monitor the LC3 expression and subcellular localization.

mTORC1 signaling pathway = assay: Western blot of mTORC1 signaling (S6K phosphorylation); assay type: cell-based; details: compared with the control group, with or without light (420 nm, 70 mW/cm^2, 3 min)
Method: as §1, §2

[2] = cited from earlier work
cancer cells = assay: MTT cell viability assay; assay type: cell-based
Method: FIG. 8 is a bar graph showing cell viability (0%-150%) for cell groups treated with each of DMSO (control), OSI-027, DEACM, and cOSI-027, each at 50 μM, respectively, each with (+) or without (−) exposure to light. Light irradiation was done with a 420 nm LED (70 mW/cm^2, 3 min).
To investigate the anti-cancer effect of this photo-activatable prodrug system, MTT assay was further conducted to analyze the cell viability after the treatment with different formulations.

[3] = Photocleavage of cOSI-027 by HPLC, 420 nm light; assay type: physicochemical; details: 70 mW/cm^2
Method: FIGS. 4A and 4B show the photocleavage of cOSI-027 by HPLC and quantitative analysis. FIG. 4A is a line graph showing the photocleavage of cOSI-027 by HPLC analysis, with 0-1000 mA.U. at the wavelength (342 nm) for cOSI-027 and for OSI-027 when exposed to 420 nm light at 70 mW/cm^2 for 0, 1, 3, 5, 7, 10, or 15 min, respectively. FIG. 4B is a graph showing remaining cOSI-027 (0-400 μM) and released OSI-027 (0-300 μM) over light irradiation time (0, 1, 3, 5, 7, 10, or 15 min, respectively).
The optochemcial characteristics of the caged OSI-027 prodrug were analyzed by spectroscopy (FIGS. 3A-3C). The absorption peaks of the prodrug were located at 300 nm and 380 nm. The emission peak was located at 460 nm under 380 nm excitation. […] To further verify the photocleavage reaction after light irradiation, high performance liquid chromatography (HPLC) was utilized to monitor the cleavage and release of OSI-027 after light irradiation.

SMILES: COc1cccc2cc(-c3nc([C@H]4CC[C@H](C(=O)O)CC4)n4ncnc(N)c34)[nH]c12 [OSI-027, Trans-4-[4-amino-5-(7-methoxy-1H-indol-2-yl)imidazo[5,1-f][1,2,4]triazin-7-yl]-cyclohexanecarboxylic acid]
phosphorylation of Akt (marker for mTORC2 signaling) (mTORC2 signaling pathway): decreased
LC3-II/LC3-I ratio (autophagy activity; 24 h after the drug treatment, compared with the control group): increased
number and area of red and yellow puncta in the cells ([1]; compared with the control group): significantly increase
phosphorylation of S6K (marker for mTORC1 signaling) (mTORC1 signaling pathway): decreased
patients with stable disease ([2]; 8-12-week follow-up assessment): 29.7 % patients
patients free of progression for more than 24 weeks ([2]; of the patients with stable disease): six
toxicity and adverse effects ([2]; phase I clinical trial observations): induced dose-limiting toxicities (DLT) and adverse effects; also recorded: induced fatigue, gastrointestinal disorders, decreased cardiac function and cardiomyopathy, bone pain, and hyperglycemia; also recorded: frequently led to renal dysfunction
viability at 50 µM (cancer cells; after 48 h incubation): ~30%

photocleavage (HPLC) ([3]; after 3 min irradiation, 420 nm): almost completed
SMILES: CCN(CC)c1ccc2c(COC(=O)C3CCC(c4nc(-c5cc6cccc(OC)c6[nH]5)c5c(N)ncnn45)CC3)cc(=O)oc2c1 (stereo not drawn) [cOSI-027]
phosphorylation of Akt (marker for mTORC2 signaling) (mTORC2 signaling pathway): only exhibited significant inhibitory effect on mTORC1 and mTORC2 pathway after light irradiation
LC3-II/LC3-I ratio (autophagy activity; after light irradiation (420 nm LED, 70 mW/cm^2, 3 min), compared with non-irradiation group): higher
puncta number ([1]; after light irradiation (420 nm LED, 70 mW/cm^2, 3 min)): increased
phosphorylation of S6K (marker for mTORC1 signaling) (mTORC1 signaling pathway): only exhibited significant inhibitory effect on mTORC1 and mTORC2 pathway after light irradiation
cell viability (cancer cells; 50 μM, after light irradiation (420 nm LED, 70 mW/cm^2, 3 min)): significantly lower
release of OSI-027 (HPLC) ([3]; after 1 min of 420 nm light irradiation): generation of OSI-027 was characterized by the new peak
